Results on 19 molecules are retold here after PubChem BioAssay (NCI).

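Five compound concentrations were applied to cells in 96-well plates for 48 hours; endpoints were derived by simple linear interpolation of the resulting dose-response curve. The concentration for 50% growth inhibition is given as GI50. TGI marks complete inhibition of growth.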 Bounds are passed on as bounds.

Among the test systems are 786-0 renal; HOP-92 NSCLC; M14 melanoma; MOLT-4 leukemia; HCT-15 colon; MCF7 breast; PC-3 prostate; SK-MEL-2 melanoma; T-47D breast.
Holding throughout (assay): NCI tumour cell line growth inhibition, 48 h

Take `COc1ccc2[nH]c(-c3ccccn3)cc(=O)c2c1`: the TGI is over 100 µM in the test with 786-0 renal, over 100 µM with HOP-92 NSCLC, 90.9 µM with M14 melanoma and over 100 µM in the test with MOLT-4 leukemia.

As for `Cc1cccc(C(C)(C)C)c1NC(=O)C(=O)C(C(=O)/C=C\c1ccccc1)C1OC(=O)c2ccccc21` (centres undefined), the TGI with 786-0 renal, with HCT-15 colon, in the test on HOP-92 NSCLC, with M14 melanoma and in the test with MOLT-4 leukemia was over 100 µM each time.

With `C=C1[C@@H](C)[C@H]2[C@H](Cc3ccccc3)NC(=O)[C@]23OC(=O)/C=C/[C@H](O)CCC[C@@H](C)C/C=C/[C@H]3[C@@H]1O`, the TGI in the test with 786-0 renal was over 100 µM; with HCT-15 colon, 93.2 µM; in the test with HOP-92 NSCLC, 4.23 µM; in the test with M14 melanoma, over 100 µM; in the test with MCF7 breast, over 100 µM; in the test on MOLT-4 leukemia it was 72.3 µM. Besides, the TGI in the test with PC-3 prostate is over 100 µM; in the test on SK-MEL-2 melanoma, 89.1 µM; with T-47D breast, over 100 µM.

With `C/C(O)=C(\N=O)C(=O)NCCc1ccccc1`, the TGI in the test with 786-0 renal is over 100 µM; with HCT-15 colon, over 55.9 µM; in the test with HOP-92 NSCLC it was over 100 µM; in the test on M14 melanoma, over 100 µM; in the test with MOLT-4 leukemia, over 100 µM; in the test on SK-MEL-2 melanoma, over 100 µM.

Consider `CCCN(CCCCC(NC(C)=O)C(=O)NCc1ccccc1)C(=O)NCCCl` (centres undefined), for which the TGI with 786-0 renal, with HCT-15 colon, with HOP-92 NSCLC, with M14 melanoma and in the test with MOLT-4 leukemia was over 100 µM each time.

Take `COC(=O)C1CC(C(=O)OC)c2nc3cc(C)ccc3nc21` (centres undefined): the TGI in the test with 786-0 renal, in the test on HCT-15 colon, in the test with HOP-92 NSCLC, in the test with M14 melanoma, in the test on MOLT-4 leukemia and in the test on SK-MEL-2 melanoma was over 100 µM in each case.

Consider `CCCCCCCCCCCCCCCCCC(=O)OCC(CN(C)CCN(C)C)OC(=O)CCCCCCCCCCCCCCCCC` (centres undefined), for which the TGI is over 100 µM in the test on 786-0 renal; over 100 µM in the test on HCT-15 colon; over 100 µM in the test on HOP-92 NSCLC; over 100 µM with M14 melanoma; 83.7 µM with MOLT-4 leukemia; over 100 µM in the test with SK-MEL-2 melanoma.

On to `O=S(=O)([O-])c1cccc2cccc(N=Cc3ccccc3[O-])c12.O=S(=O)([O-])c1cccc2cccc(N=Cc3ccccc3[O-])c12.[O]=[U]=[O]`, for which the GI50 is 33.7 µM in the test with 786-0 renal; 49 µM in the test with HCT-15 colon; 30.1 µM with HOP-92 NSCLC; 43 µM with M14 melanoma; 29 µM in the test on MOLT-4 leukemia; over 100 µM in the test with SK-MEL-2 melanoma. For the same molecule, the TGI was over 100 µM in the test with 786-0 renal; over 100 µM in the test on HCT-15 colon; 89.6 µM in the test with HOP-92 NSCLC; over 100 µM in the test with M14 melanoma; over 100 µM in the test on MOLT-4 leukemia; over 100 µM with SK-MEL-2 melanoma.

In the case of `Cc1ccccc1-c1c(N)nc(NC#N)nc1C(=O)Nc1ccccc1`, the TGI with 786-0 renal, with HCT-15 colon, in the test on HOP-92 NSCLC, in the test with M14 melanoma, in the test with MOLT-4 leukemia and with SK-MEL-2 melanoma was over 100 µM each time.

Regarding `Clc1ccc(Cl)c2[s+]snc12`, the TGI is over 56.1 µM in the test on 786-0 renal; over 65.5 µM in the test on HCT-15 colon; over 100 µM in the test on HOP-92 NSCLC; over 100 µM with M14 melanoma; over 100 µM in the test with MOLT-4 leukemia.

Regarding `CC(=O)Nc1ccc(C(=O)N2N=C(C)/C(=C/c3ccccc3O)C2=O)cc1`, the TGI in the test with 786-0 renal, in the test on HCT-15 colon, with M14 melanoma, in the test on MOLT-4 leukemia and in the test with SK-MEL-2 melanoma was over 100 µM in each case.

For `N#CC(NNC(=O)c1ccccc1O)c1ccc(O)cc1` (centres undefined), the TGI in the test with 786-0 renal was over 100 µM; in the test on HCT-15 colon, over 100 µM; in the test on HOP-92 NSCLC, over 100 µM; in the test on M14 melanoma it was over 100 µM; in the test on MOLT-4 leukemia, over 100 µM; in the test on SK-MEL-2 melanoma it was 78.5 µM.

For the molecule `Cc1ccc(NC(=O)CC2C(=O)Nc3ccccc3S2=O)cc1C` (centres undefined), the TGI is 68.8 µM with 786-0 renal; over 100 µM with HCT-15 colon; 74.2 µM in the test on HOP-92 NSCLC; over 100 µM with M14 melanoma; over 100 µM in the test on MOLT-4 leukemia; over 100 µM in the test on SK-MEL-2 melanoma.

In the case of `O=C(O)CNc1c2ccccc2nc2ccccc12`, the TGI in the test on 786-0 renal, with HCT-15 colon, with HOP-92 NSCLC, with M14 melanoma, in the test on MOLT-4 leukemia and with SK-MEL-2 melanoma was over 100 µM in each case.

As to `CSc1nc(NC2OCC(OC(C)=O)C(OC(C)=O)C2OC(C)=O)c2c(OC(C)=O)c(C)c(=O)oc2n1` (centres undefined), the TGI in the test with 786-0 renal, in the test with HCT-15 colon, in the test on HOP-92 NSCLC, with M14 melanoma, in the test on MOLT-4 leukemia and in the test on SK-MEL-2 melanoma was over 100 µM in each case.

In the case of `CCCCCCCCCCC/C(=N/O)c1ccc(O)c2ncccc12`, the TGI stood at 30.2 µM in the test with 786-0 renal, 5.47 µM in the test on HOP-92 NSCLC, 4.8 µM in the test with M14 melanoma and 5.86 µM in the test with SK-MEL-2 melanoma.

On to `COC(=O)C(CCS(=O)(=O)CC(=O)C(=O)Nc1cccc(C(C)=O)c1)C(=O)OC`, for which the TGI with 786-0 renal, in the test on HCT-15 colon, in the test on HOP-92 NSCLC, in the test with M14 melanoma, with MOLT-4 leukemia and in the test with SK-MEL-2 melanoma was over 100 µM throughout.

With `CCOC(=O)CC(=O)Sc1ccccc1`, the TGI is 37 µM in the test on 786-0 renal; 89.5 µM with HOP-92 NSCLC; 31.7 µM in the test with M14 melanoma; 72.6 µM in the test with MOLT-4 leukemia; 67.9 µM with SK-MEL-2 melanoma.

For `[N-]=[N+]=NC(c1cn(C2CC(O)C(CO)O2)c(=O)[nH]c1=O)C(Br)I` (centres undefined), the TGI in the test on 786-0 renal, in the test with HCT-15 colon, with HOP-92 NSCLC, in the test with M14 melanoma, in the test with MOLT-4 leukemia and in the test with SK-MEL-2 melanoma was over 100 µM in each case.
